This is an account of results in patent US20250101057A1, “SOLID FORMS” (Gilead Sciences, Inc., priority 2023, published 2025).

The nature of this series: Dynamic Vapor Sorption (DVS) hygroscopicity. The conditions noted are these: for DVS (%): Table 6 summary of crystalline Forms I-V; for hygroscopicity by DVS analysis (in words): 0 to 90% RH at 25° C.; for DVS weight change: from 0 to 90% RH at 25° C. The series is classed as physicochemical. As for the experimental part: Dynamic Vapor Sorption (DVS) was used to study hygroscopicity on Model Q5000 SA (TA Instruments, New Castle, DE). A sample (1-10 mg) was placed in an aluminum pan and loaded on the sample side of the twin pan balance. The water sorption and desorption were studied as a function of relative humidity (RH) at 25° C. in 10% RH increments from 0% RH to 90% RH and then back to 0%. […] Data analysis was performed using Universal Analysis 2000 Version 4.7A (TA Instruments, New Castle, DE).

Setting [1] is: listed as Compound 1, crystalline Form II.
Setting [2] is: listed as Compound 1, crystalline Form III.
Where [3] appears, read: listed as Compound 1, crystalline Form IV.
[4] abbreviates: listed as Compound 1, crystalline Form V.

With `C#C[C@]1(COC(=O)Cc2ccccc2)O[C@@H](n2cnc3c(N)nc(F)nc32)C[C@@H]1OC(=O)Cc1ccccc1` [Form I, (2R,3S,5R)-5-(6-amino-2-fluoro-9H-purin-9-yl)-2-ethynyl-2-((2-phenylacetoxy)methyl)tetrahydrofuran-3-yl 2-phenylacetate], the “DVS (%)” value (listed as I) turned out to be 0.85%.

Take `C#C[C@]1(COC(=O)Cc2ccccc2)O[C@@H](n2cnc3c(N)nc(F)nc32)C[C@@H]1OC(=O)Cc1ccccc1` [Form II, (2R,3S,5R)-5-(6-amino-2-fluoro-9H-purin-9-yl)-2-ethynyl-2-((2-phenylacetoxy)methyl)tetrahydrofuran-3-yl 2-phenylacetate]: under setting [1], the “hygroscopicity by DVS analysis (in words)” value (“hygroscopicity” below) was “non-hygroscopic” and the DVS weight change result is listed as “around 0.1%”. Where the note is “listed as II”, the “DVS (%)” value is 0.08%.

For `C#C[C@]1(COC(=O)Cc2ccccc2)O[C@@H](n2cnc3c(N)nc(F)nc32)C[C@@H]1OC(=O)Cc1ccccc1` [Form III, (2R,3S,5R)-5-(6-amino-2-fluoro-9H-purin-9-yl)-2-ethynyl-2-((2-phenylacetoxy)methyl)tetrahydrofuran-3-yl 2-phenylacetate], under setting [2], the “hygroscopicity” value is reported as “slightly hygroscopic” and the DVS weight change is recorded as around 1.2%. Under “listed as III”, the “DVS (%)” value was found to be 1.2%.

On to `C#C[C@]1(COC(=O)Cc2ccccc2)O[C@@H](n2cnc3c(N)nc(F)nc32)C[C@@H]1OC(=O)Cc1ccccc1` [Form IV, (2R,3S,5R)-5-(6-amino-2-fluoro-9H-purin-9-yl)-2-ethynyl-2-((2-phenylacetoxy)methyl)tetrahydrofuran-3-yl 2-phenylacetate], for which, under setting [3], the “hygroscopicity” value is given as “non-hygroscopic” and the DVS weight change is listed as around 0.16%. Moreover, the “DVS (%)” value (listed as IV) is 0.16%.

In the case of `C#C[C@]1(COC(=O)Cc2ccccc2)O[C@@H](n2cnc3c(N)nc(F)nc32)C[C@@H]1OC(=O)Cc1ccccc1` [Form V, (2R,3S,5R)-5-(6-amino-2-fluoro-9H-purin-9-yl)-2-ethynyl-2-((2-phenylacetoxy)methyl)tetrahydrofuran-3-yl 2-phenylacetate], under setting [4], the “hygroscopicity” value was “non-hygroscopic” and the DVS weight change was around 0.1%. For the same molecule, the “DVS (%)” value (listed as V) stood at 0.10%.
